Source: ChEMBL document CHEMBL1201862, “PubChem BioAssay data set” (2004)
Active and inactive are the calls of the source.

Columns and labels:
[1] = viability of uninfected HEp-2 cells – cell-based, HTS, cytotoxicity control for RSV inhibitor project, dose response (AID 2410); assay type: functional; details: human respiratory syncytial virus
[2] = molecular target: Luciferin 4-monooxygenase (Photinus pyralis, UniProt P08659); experiment: inhibition of purified Photinus pyralis luciferase – biochemical, luminescence, dose response (AID 1891)
Luciferin 4-monooxygenase, sequence (P08659 whole entry): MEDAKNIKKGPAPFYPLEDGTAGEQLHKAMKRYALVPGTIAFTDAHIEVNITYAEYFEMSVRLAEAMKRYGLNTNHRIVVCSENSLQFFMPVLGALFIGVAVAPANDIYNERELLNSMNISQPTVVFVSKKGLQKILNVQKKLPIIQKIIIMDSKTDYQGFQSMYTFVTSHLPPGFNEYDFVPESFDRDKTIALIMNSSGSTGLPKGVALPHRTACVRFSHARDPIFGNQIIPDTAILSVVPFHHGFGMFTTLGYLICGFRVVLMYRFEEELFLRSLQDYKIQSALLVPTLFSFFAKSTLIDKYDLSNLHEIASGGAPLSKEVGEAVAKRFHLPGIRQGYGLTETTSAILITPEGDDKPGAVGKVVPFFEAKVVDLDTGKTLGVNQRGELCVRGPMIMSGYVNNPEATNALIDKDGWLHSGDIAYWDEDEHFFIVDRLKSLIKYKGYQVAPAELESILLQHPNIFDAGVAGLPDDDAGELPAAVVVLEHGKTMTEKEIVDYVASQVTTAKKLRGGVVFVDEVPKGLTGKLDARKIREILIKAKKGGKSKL

[3] = Luminescence Cell-Based Dose Confirmation HTS to Identify Inhibitors of Platelet Dense Granule Release. [Related pubchem assays: 1663 (Primary HTS), 1678 (Summary of Project)]; assay type: functional
[4] = molecular target: T1, Corticotropin-releasing factor receptor 2/Corticotropin-releasing factor-binding protein (Homo sapiens, UniProt P24387+Q13324); experiment: activators of CRF receptor 2 with binding protein – uHTS hits, confirmation (AID 602473); assay type: functional; details: read-out: EC50_Mean
T1 sequence (Q13324 whole entry): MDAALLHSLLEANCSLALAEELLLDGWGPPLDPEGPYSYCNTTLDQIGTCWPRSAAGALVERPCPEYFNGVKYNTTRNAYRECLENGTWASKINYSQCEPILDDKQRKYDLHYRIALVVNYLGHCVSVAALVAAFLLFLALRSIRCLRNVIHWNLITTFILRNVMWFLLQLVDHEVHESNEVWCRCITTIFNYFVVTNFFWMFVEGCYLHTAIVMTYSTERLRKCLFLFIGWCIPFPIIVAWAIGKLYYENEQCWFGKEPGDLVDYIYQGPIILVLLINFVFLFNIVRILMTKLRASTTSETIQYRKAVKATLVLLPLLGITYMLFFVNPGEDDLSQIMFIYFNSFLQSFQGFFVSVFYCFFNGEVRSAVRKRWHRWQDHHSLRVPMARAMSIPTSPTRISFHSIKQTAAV
T1 sequence (P24387 whole entry): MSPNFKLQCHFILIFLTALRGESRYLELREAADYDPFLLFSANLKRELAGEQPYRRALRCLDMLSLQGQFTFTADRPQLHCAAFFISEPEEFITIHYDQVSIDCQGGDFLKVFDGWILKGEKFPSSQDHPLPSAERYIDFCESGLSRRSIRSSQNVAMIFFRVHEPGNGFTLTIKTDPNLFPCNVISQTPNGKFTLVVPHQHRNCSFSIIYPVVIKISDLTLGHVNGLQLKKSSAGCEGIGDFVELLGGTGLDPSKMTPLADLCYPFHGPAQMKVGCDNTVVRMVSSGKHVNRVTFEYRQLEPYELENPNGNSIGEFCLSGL

Cytochrome P450 2C19 = Cytochrome P450 2C19 (Homo sapiens, UniProt P33261); experiment: Cytochrome panel assay with activity outcomes. Panel member name: p450-cyp2c19 Compounds with AC50 equal or less than 10 uM are considered active; assay type: functional
Cytochrome P450 2C19, sequence (P33261 whole entry): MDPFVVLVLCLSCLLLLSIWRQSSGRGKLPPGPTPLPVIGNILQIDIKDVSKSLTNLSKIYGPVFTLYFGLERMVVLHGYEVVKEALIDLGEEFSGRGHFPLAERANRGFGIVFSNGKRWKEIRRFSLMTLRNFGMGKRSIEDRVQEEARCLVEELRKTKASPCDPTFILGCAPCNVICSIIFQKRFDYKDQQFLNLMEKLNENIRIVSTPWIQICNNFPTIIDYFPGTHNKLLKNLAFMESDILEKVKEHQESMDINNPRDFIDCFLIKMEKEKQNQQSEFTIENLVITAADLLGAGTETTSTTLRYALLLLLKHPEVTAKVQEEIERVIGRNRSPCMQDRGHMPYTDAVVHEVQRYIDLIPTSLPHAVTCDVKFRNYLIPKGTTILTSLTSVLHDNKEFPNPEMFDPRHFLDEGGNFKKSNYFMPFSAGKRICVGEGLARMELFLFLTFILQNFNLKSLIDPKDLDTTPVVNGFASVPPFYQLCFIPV

[5] = Trypanosoma cruzi growth suppression in host cells – NIH3T3 host cells, beta-gal luminescence, confirmation (AID 2044); assay type: functional, cell-based;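 note: intracellular parasites grown in NIH/3T3 mouse fibroblasts as host cells; luminescent beta-galactosidase reporter signal from transgenic T. cruzi replicating inside host cells; inhibitors lower the luminescence signal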
[6] = NIH3T3 cell viability loss – ATP luminescence, mouse fibroblasts, counter-screen, dose response (AID 2010); assay type: functional, cell-based;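 note: cells exposed to compound for about 90 hours before reading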
Cytochrome P450 2D6 = Cytochrome P450 2D6 (Homo sapiens, UniProt P10635);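 note: CYP2D6 member of a cytochrome P450 panel assay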
Cytochrome P450 2D6, sequence (P10635 whole entry): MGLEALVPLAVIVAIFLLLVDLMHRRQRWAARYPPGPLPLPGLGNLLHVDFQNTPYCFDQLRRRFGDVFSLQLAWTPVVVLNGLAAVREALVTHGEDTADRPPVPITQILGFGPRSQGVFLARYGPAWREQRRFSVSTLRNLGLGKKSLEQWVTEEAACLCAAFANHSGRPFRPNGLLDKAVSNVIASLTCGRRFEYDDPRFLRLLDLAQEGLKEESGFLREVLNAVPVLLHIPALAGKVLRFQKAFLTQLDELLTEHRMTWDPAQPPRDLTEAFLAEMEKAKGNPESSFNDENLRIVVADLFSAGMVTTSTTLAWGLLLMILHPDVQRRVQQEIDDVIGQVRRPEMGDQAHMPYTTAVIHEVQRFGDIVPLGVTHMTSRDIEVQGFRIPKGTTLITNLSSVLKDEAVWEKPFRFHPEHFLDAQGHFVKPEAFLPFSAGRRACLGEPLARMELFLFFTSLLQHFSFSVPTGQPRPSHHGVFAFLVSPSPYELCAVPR

[7] = tested on: Streptococcus sp. 'group A'; experiment: Streptococcus pyogenes SK(-)GAS viability under kanamycin – luminescence, BacTiterGlo, confirmation, counter-screen for streptokinase expression inhibitor project, dose response (AID 1900); assay type: functional, organism-based
Streptococcus = experiment: GAS UMAA2166 growth inhibition – luminescence, BacTiterGlo, counter-screen for streptokinase expression inhibitor project, dose response (AID 1915); assay type: functional, organism-based;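 note: potency for reduction of bacterial viability or growth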

## Sc1ncnc2c1sc1nc(N3CCOCC3)c3c(c12)CCCC3
[1]
  CC50: > 50 µM (active)

## COc1ccc(Cl)cc1Nc1nc(-c2sc(NC(=O)c3ccco3)nc2C)cs1
[1]
  CC50: 35.4 µM (active)

## COc1ccc(-c2noc(CCCC(=O)NCC3CCCO3)n2)cc1 (stereo not drawn)
[1]
  CC50: 30.3 µM (active)

## COc1ccc(CN2CCNC(=O)C2CC(=O)NCC(C)(C)N2CCOCC2)cc1C (stereo not drawn)
[2]
  EC50: > 112 µM (not active)
[3]
  EC50: > 112 µM (not active)

## COc1cc(OC)c(OC)cc1/C=C1/Cc2ccccc2C1=O
[4]
  EC50: 5.48 µM (active)

## Cc1ccc(NC(=O)C(=O)NCc2ccc(/C=C(/C#N)C(=O)NCc3cccnc3)o2)cc1
Cytochrome P450 2C19; read-out: AC50
  AC50: 7.08 µM (inconclusive)

## COc1ccc(N(CC(=O)NCCC2=CCCCC2)S(=O)(=O)c2ccccc2)cc1OC
[5]
  EC50: 3.35 µM (active)
[6]
  EC50: > 60 µM (not active)

## Cc1cc2cc3c(cc2nc1SCC(=O)Nc1c(C)cccc1C)CCC3
Cytochrome P450 2D6
  AC50: 14.1 µM (inconclusive)

## Cn1c(=O)c2c(SCC(=O)N3CCCc4ccccc43)nc(CC(C)(C)C)nc2n(C)c1=O
[1]
  CC50: > 50 µM (active)

## O=C(CCCc1ccccn1)c1ccccc1
Cytochrome P450 2C19; read-out: AC50
  AC50: 2.51 µM (inconclusive)

## Cc1nn(C)c(Cl)c1CN1CCCC(CCC(=O)NCc2ccccc2F)C1 (stereo not drawn)
[5]
  EC50: 0.181 µM (active)
[6]
  EC50: > 30 µM (not active)

## Cc1ccc(-c2nc(SC(C)C(=O)N3CCOCC3)n[nH]2)cc1 (stereo not drawn)
[2]
  EC50: > 112 µM (not active)
[3]
  EC50: > 112 µM (not active)

## COC(=O)[C@@]1(Cc2ccc(OC)cc2)[C@H]2c3cc(C(=O)N(C)C)n(C)c3C[C@H]2CN1C(=O)c1ccccc1
Cytochrome P450 2C19; read-out: AC50
  AC50: 25.1 µM (inconclusive)

## CN(C)CCOC(=O)C1(c2ccccc2)CCCC1
[2]
  EC50: > 112 µM (not active)
[3]
  EC50: > 112 µM (not active)

## O=C(c1cccc(F)c1)N1CCC2(CCCN(Cc3ccccc3)C2)CC1
Cytochrome P450 2D6
  AC50: 10 µM (inconclusive)

## COC(=O)c1c(NC(=O)CN2C(=O)NC3(CCC(C(C)(C)C)CC3)C2=O)sc2c1CCCCC2 (stereo not drawn)
[5]
  EC50: 3.11 µM (active)
[6]
  EC50: > 60 µM (not active)

## CNc1ccc(Oc2nc([N+](=O)[O-])nn2C)cc1
[5]
  EC50: 1.43 µM (active)
[6]
  EC50: > 60 µM (not active)

## CCOc1ccccc1C1c2[nH]c3ccccc3c2C[C@H]2C(=O)N(C3CCN(Cc4ccccc4)CC3)CC(=O)N12 (stereo partly drawn)
[5]
  EC50: 2.15 µM (active)
[6]
  EC50: > 60 µM (not active)

## COc1ccc(-n2nc3c(N4CCC(C(=O)N5CCCCCC5)CC4)nnc(C)c3c2C)cc1
[5]
  EC50: 0.858 µM (active)
[6]
  EC50: > 60 µM (not active)

## CN(C)c1ccc(/C=N/N=C(N)N)cc1[N+](=O)[O-]
[5]
  EC50: 0.144 µM (active)
[6]
  EC50: > 60 µM (not active)

## c1ccc(-c2cc3c(N4CCCC4)ncnc3s2)cc1
[1]
  CC50: > 50 µM (active)

## COc1cccc(-c2cc(C(=O)Nc3ccc(N(C)C(C)=O)cc3)c3cc(Br)ccc3n2)c1
[5]
  EC50: 1.83 µM (active)
[6]
  EC50: > 60 µM (not active)

## N#Cc1c(-c2ccc3c(c2)OCO3)ccn2nc(-c3cccc(C(F)(F)F)c3)nc12
Cytochrome P450 2D6
  AC50: 3.16 µM (inconclusive)

## CCOC(=O)c1c(NC(=O)CN2C(=O)NC3(CCCCC3C)C2=O)sc(C)c1CC (stereo not drawn)
[5]
  EC50: 2.37 µM (active)
[6]
  EC50: > 60 µM (not active)

## Cc1ccc(C)c(OCC(O)CN2CCc3ccccc3C2)c1C (stereo not drawn)
[1]
  CC50: 46.3 µM (active)

## Nc1nn(S(=O)(=O)c2ccccc2)cc1-c1cccc([N+](=O)[O-])c1
[5]
  EC50: 1.83 µM (active)
[6]
  EC50: > 60 µM (not active)

## Cc1nc2c(C(=O)NCc3ccco3)cnn2c(C)c1Cc1ccc(F)cc1Cl
[5]
  EC50: 2.17 µM (active)
[6]
  EC50: > 30 µM (not active)

## O=C(O)CC1(CC(=O)O)Nc2ccccc2SC1=O
Cytochrome P450 2C19
  AC50: inconclusive

## CCOc1ccc(C(=O)O/N=C(\N)c2ccccn2)cc1OCC
[2]
  EC50: > 112 µM (not active)
[3]
  EC50: > 112 µM (not active)

## Cc1cccc(OCC(=O)NNC(=O)CSc2ncc(C#N)c(N)n2)c1
Cytochrome P450 2C19; read-out: AC50
  AC50: 15.8 µM (inconclusive)
Cytochrome P450 2D6
  AC50: 4.47 µM (inconclusive)

## CC(=O)c1sc(N/N=C\c2c(O)ccc3ccccc23)nc1C
[7]
  EC50: 4.07 µM (active)
Streptococcus
  EC50: 7.49 µM (active)

## O=C(Nc1ncc(Cc2ccc(Cl)cc2Cl)s1)c1ccc([N+](=O)[O-])cc1
[4]
  EC50: > 53 µM (inactive)

## COc1cc(O)oc1/C=N/c1ccc(Cl)cc1
Cytochrome P450 2D6
  AC50: 14.1 µM (inconclusive)

## CSc1scc2c1-c1nc(SCC(=O)C(C)(C)C)ncc1CC2
[1]
  CC50: 20.6 µM (active)

## CCOC(=O)/C=c1/s/c(=C/c2ccc3cc(OC)ccc3c2)c(=O)n1CC(=O)NCc1ccc2c(c1)OCO2
[4]
  EC50: 4.9 µM (active)

## CCOC(=O)c1cnc2c(C#N)c(C)nn2c1-c1ccccc1
[2]
  EC50: > 112 µM (not active)
[3]
  EC50: 54.1 µM (active)

## O=C(Nc1cccc(F)c1)N1CCC2(CCNCC2)CC1
Cytochrome P450 2C19; read-out: AC50
  AC50: 20 µM (inconclusive)
Cytochrome P450 2D6
  AC50: 12.6 µM (inconclusive)

## CCc1ccc(C(C(=O)NCc2ccc(OC)cc2)N(CCOC)C(=O)Cc2cccs2)cc1 (stereo not drawn)
Cytochrome P450 2D6
  AC50: 25.1 µM (inconclusive)

## O=C(c1ccc(Cl)cc1)C1CCCN(Cc2cnn(-c3ccccc3)c2)C1 (stereo not drawn)
[5]
  EC50: 0.503 µM (active)
[6]
  EC50: > 60 µM (inconclusive)

## Cc1ccc(/C=C/C(=O)Nc2ccccc2C(N)=O)cc1
[2]
  EC50: 3.26 µM (active)
[3]
  EC50: 22.3 µM (active)

## O=C1OCCC=C1[C@@H](O)CCc1ccccc1
Cytochrome P450 2C19; read-out: AC50
  AC50: 0.316 µM (inconclusive)

## CC1CCCCN1S(=O)(=O)c1ccc(S(=O)(=O)N(Cc2ccccc2)Cc2ccco2)cc1 (stereo not drawn)
[5]
  EC50: 1.09 µM (active)
[6]
  EC50: > 60 µM (not active)

## COC(=O)Cn1c(=N)n(CCN2CCCCC2)c2ccccc21
Cytochrome P450 2D6
  AC50: 44.7 µM (inconclusive)

## CCN(CC)S(=O)(=O)c1ccc(NN=C2CCN(C)CC2)c([N+](=O)[O-])c1
[5]
  EC50: 0.482 µM (active)
[6]
  EC50: > 60 µM (not active)

## CCc1ccc2nc(O)c(CN(Cc3ccccc3)C(=O)Nc3ccccc3OC)cc2c1
[5]
  EC50: 1.93 µM (active)
[6]
  EC50: > 60 µM (not active)

## C[C@@H]1CN(CCCn2c3ccccc3c3ccccc32)C[C@H](C)N1 [RIMCAZOLE]
Cytochrome P450 2D6
  AC50: 15.8 µM (inconclusive)

## CCOCCCN1C(=O)CN(C2CCC(C)CC2)C(=O)C1c1ccc(C)cc1 (stereo not drawn)
[2]
  EC50: > 112 µM (not active)
[3]
  EC50: > 112 µM (not active)

## NC(=S)N/N=C/c1ccc(-c2cc(Cl)cc(Cl)c2)o1
[5]
  EC50: 2.67 µM (active)
[6]
  EC50: > 60 µM (not active)

## Cc1nn(C)cc1CNC(=O)C1CCC(=O)N(CC2CCCCC2)C1 (stereo not drawn)
[2]
  EC50: > 112 µM (not active)
[3]
  EC50: > 112 µM (not active)

## COc1cc(C)c(C)cc1S(=O)(=O)N1CCCc2ccccc21
[4]
  EC50: 5.44 µM (active)

## Nc1ccn(-c2ccc(Cl)cc2)c(=O)c1
[2]
  EC50: > 112 µM (not active)
[3]
  EC50: > 112 µM (not active)

## Fc1ccc(/C=N/Nc2nccnc2Cl)cc1
[2]
  EC50: 8.1 µM (active)
[3]
  EC50: 1.65 µM (active)

## COC(=O)c1c(NC(=O)C2CC(=O)NN2Cc2ccccc2)sc(C)c1C (stereo not drawn)
[2]
  EC50: > 112 µM (not active)
[3]
  EC50: > 112 µM (not active)

## COc1cc(N2CCOCC2)ncn1
Cytochrome P450 2C19; read-out: AC50
  AC50: 0.00562 µM (inconclusive)

## Nc1cccc2c1Cc1cc([N+](=O)[O-])ccc1-2
[4]
  EC50: > 53 µM (inactive)

## CC(=O)OCCN1C(=O)c2cccc3cc([N+](=O)[O-])cc(c23)C1=O
[5]
  EC50: 0.358 µM (active)
[6]
  EC50: > 30 µM (not active)

## Cc1c(/C=N/NC(=O)C(NC(=O)c2ccc3c(c2)OCO3)C(C)C)c2ccccc2n1C (stereo not drawn)
[4]
  EC50: 1.24 µM (active)

## c1ccc2c(N3CCCCCC3)nc(-c3ccncc3)nc2c1
[1]
  CC50: 15.9 µM (active)

## CCN(CC)S(=O)(=O)c1ccc2c(c1)nc(CCC(=O)O)n2C
[2]
  EC50: > 112 µM (not active)
[3]
  EC50: > 112 µM (not active)

## COc1cccc(/C=N/NC(=O)C(=O)N/N=C/c2cccc(OC)c2OC)c1OC
[2]
  EC50: > 112 µM (not active)
[3]
  EC50: > 112 µM (not active)
